Data from patent EP0587106B1, “Compositions containing lipophilic salts having neutron activable cations” (VECTORPHARMA INTERNATIONAL S.p.A., priority 1992, dated 1994).
≈ marks a conversion by molar mass, not a printed value.

Experiment: physchem

## CCCCCCCCCCCCCC(=O)O [Samarium miristate, samarium miristate]
pH 1.2
  solubility at 24 h: 90 µg/mL (≈ 394 µM)
pH 3
  solubility at 24 h: 8 µg/mL (≈ 35 µM)
pH 5.2
  solubility at 24 h: < 2 µg/mL
pH 7
  solubility at 24 h: < 2 µg/mL
